The record followed here is US10772836B2, “Method for producing particles” (RICOH COMPANY, LTD., priority 2016, dated 2020).

Data set [1] can be described thus: Oral absorbability of […], blood drug concentration after oral administration (Test Example 6). The data set is classed as in vivo. The conditions noted are these: rat, plasma, male SD rats, single oral dose 10 mg/kg in terms of […]. The protocol:
In order to evaluate an oral absorbability of the pharmaceutical particles produced in Example 2, the pharmaceutical particles of Example 2 and […] bulk powder were orally administrated to male SD rats (from 6 to 8 week-old, available from Japan SLC, Inc.) and then blood drug concentrations were measured over time. Each powder was suspended in water and administrated through a single-dose forced oral administration to the male SD rats at 10 mg/kg in terms of […]. After the oral administration, blood was collected from tail veins over time, transferred to heparinized micro test tubes, and cooled with ice immediately. After the cooling, the blood was rapidly centrifuged to obtain blood plasma. The resultant blood plasma was quantified by an ultra-high performance liquid chromatography (available from Waters) equipped with, as a detector, a single quadrupole mass spectrometer (ACQUITY SQD, available from Waters).

For data set [2], the system named is blood calcium concentration. Nature of the data set: Drug efficacy after transpulmonary administration, blood calcium concentration (Test Example 9). The data set is classed as in vivo. The conditions noted are these: male SD rats, transpulmonary 40 micrograms/animal in terms of CALCITONIN, time zero = 100%. The protocol: A powder preparation prepared using the pharmaceutical particles of Example 3 was evaluated for a drug efficacy after transpulmonary administration. The powder preparation was prepared by mixing the pharmaceutical particles of Example 3 with lactose (average particle diameter: 50 micrometers, RESPITOSE, available from DMV Japan) in an amount of 5 times as much as the amount of the pharmaceutical particles. The powder preparation was transpulmonary administrated (40 micrograms/animal in terms of CALCITONIN) to male SD rats (from 6 to 8 week-old, available from Japan SLC, Inc.) and then a blood calcium concentration after the administration was measured over time. As a control group, a simply mixed powder was prepared by molding a mixture of CALCITONIN bulk powder and lactose. The CALCITONIN has a pharmacological action of decreasing the blood calcium concentration. Therefore, the blood calcium concentration was selected as an indicator for evaluating the drug efficacy of the pharmaceutical particles of Example 3. The pharmaceutical particles were transpulmonary administrated by inserting an inhaler (DP-4, available from Ina Research Inc.) into the airway under inhalation anesthesia with isoflurane and feeding compressed air. A time point immediately before the transpulmonary administration was defined as time zero. Change in blood calcium concentration over time was evaluated assuming that a blood calcium concentration at the time zero was 100%. The blood calcium concentration was measured using a METALLOASSAY calcium (Ca) measurement LS kit CPZIII (available from Metallogenics Co., Ltd.).

Data set [3] in a line: Evaluation test for dissolution property in intrapulmonary-environment imitating liquid (Test Example 7). The data set is classed as physicochemical. The conditions noted are these: 37 degrees Celsius, 30 spm. On the procedure:
Ten milligrams of the pharmaceutical particles were added to 100 mL of an intrapulmonary-environment imitating liquid (0.169 g of magnesium chloride, 5.016 g of sodium chloride, 0.249 g of potassium chloride, 0.059 g of anhydrous sodium sulfate, 0.306 g of calcium chloride dehydrate, 0.794 g of sodium acetate trihydrate, 2.170 g of sodium hydrogen carbonate, 0.080 g of sodium citrate dehydrate, 0.118 g of disodium hydrogen-phosphate, and 0.167 g of dipalmitoylphosphatidylcholine in 1 L of water). […] Thus, the “dissolution property” was evaluated.

As for `COc1ccc(/C=C/C(=O)Nc2ccccc2C(=O)O)cc1OC` [Tranilast], in data set [1], the bioavailability is 1.2%, the AUC(0-inf) is 0.8 ± 0.4 µg·h/mL, the Cmax was determined as 0.1 µg/mL and the Tmax came to 1.8 ± 0.7 h. Besides, the half-life in data set [1] is 2.9 ± 0.7 h.

Consider Calcitonin [Calcitonin bulk powder], for which the Blood calcium concentration turned out to be 100% in data set [2] (time 0 h); 81.7 ± 11.6% in data set [2] (time 0.25 h); 74.6 ± 0.9% in data set [2] (time 0.5 h); 81.1 ± 10.1% in data set [2] (time 1 h); 79.5 ± 7.1% in data set [2] (time 2 h); 96.7 ± 5.1% in data set [2] (time 4 h). For the same compound, the Blood calcium concentration is 99.1 ± 12.6% in data set [2] (time 6 h), 102.1 ± 15.9% in data set [2] (time 8 h), 104.3 ± 13.8% in data set [2] (time 12 h) and 110.9 ± 5.5% in data set [2] (time 24 h). The Dissolution amount in data set [3] (time 0 hour) is 0 µg/mL; in data set [3] (time 0.25 hour), 9.56 ± 0.03 µg/mL; in data set [3] (time 0.5 hour), 9.88 ± 0.13 µg/mL; in data set [3] (time 1 hour), 9.68 ± 0.20 µg/mL; in data set [3] (time 2 hour), 9.09 ± 0.04 µg/mL; in data set [3] (time 4 hour) it was 9.01 ± 0.44 µg/mL. In addition, the Dissolution amount in data set [3] (time 6 hour) is 9.39 ± 0.14 µg/mL; in data set [3] (time 12 hour), 8.59 ± 0.15 µg/mL; in data set [3] (time 60 hour) it was 8.63 ± 0.02 µg/mL.
